This is an account of results in US9249125B2, “Pyrazole derivatives as p38 MAP inhibitors” (RESPIVERT LIMITED, priority 2012, dated 2016).

Data set [1] relates to d-U937 cells. Kind of data set: Cell viability: MTT assay. The format is cell-based, human. To be noted: 1 μg/mL. On the procedure: Differentiated U937 cells are pre-incubated with each test compound (final concentration 1 μg/mL or 10 μg/mL in 200 μL media indicated below) under two protocols: the first for 4 hr in 5% FCS RPMI1640 media and the second in 10% FCS RPMI1640 media for 24 h. The supernatant is replaced with new media (200 μL) and MTT stock solution (10 μL, 5 mg/mL) is added to each well. After incubation for 1 hr the media are removed, DMSO (200 μL) is added to each well and the plates are shaken lightly for 1 hr prior to reading the absorbance at 550 nm. The percentage loss of cell viability is calculated for each well relative to vehicle (0.5% DMSO) treatment. Consequently an apparent increase in cell viability for drug treatment relative to vehicle is tabulated as a negative percentage.

Data set [2] deals with cSrc (Homo sapiens (Human), UniProt P12931). In words: c-Src enzyme inhibition (FRET, Z-LYTE). In kind it is biochemical. The protocol:
(§1) The enzyme inhibitory activities of compounds disclosed herein are determined by FRET using synthetic peptides labelled with both donor and acceptor fluorophores (Z-LYTE, Invitrogen Ltd., Paisley, UK).
(§2) The relevant enzyme (3000 ng/mL or 2000 ng/mL respectively, 2.5 μL) is incubated with the test compound (either 4 μg/mL, 0.4 μg/mL, 0.04 μg/mL, or 0.004 μg/mL, 2.5 μL each) for 2 hr at RT. The FRET peptides (8 μM, 2.5 μL), and appropriate ATP solutions (2.5 μL, 800 μM for c-Src, and 60 μM ATP for Syk) are then added to the enzymes/compound mixtures and incubated for 1 hr. Development reagent (protease, 5 μL) is added for 1 hr prior to detection in a fluorescence microplate reader (Varioskan® Flash, ThermoFisher Scientific).
(§3) In all cases, the site-specific protease cleaves non-phosphorylated peptide only and eliminates the FRET signal. Phosphorylation levels of each reaction are calculated using the ratio of coumarin emission (donor) over fluorescein emission (acceptor), for which low ratios indicate high phosphorylation and high ratios indicate low phosphorylation levels.

Data set [3] concerns the target GSK3α (Homo sapiens (Human), UniProt P49840). Kind of data set: GSK 3α enzyme inhibition (FRET, Z-LYTE). In kind it is biochemical. The protocol: as §1
The inhibitory activities of compounds of the invention against the GSK 3α enzyme isoform (Invitrogen), are evaluated by determining the level of activation/phosphorylation of the target peptide. The GSK3-α protein (500 ng/mL, 2.5 μL) is mixed with the test compound (2.5 μL at either 4 μg/mL, 0.4 μg/mL, 0.04 μg/mL, or 0.004 μg/mL) for 2 hr at RT. The FRET peptide (8 μM, 2.5 μL), which is a phosphorylation target for GSK3α, and ATP (40 μM, 2.5 μL) are then added to the enzyme/compound mixture and the resulting mixture incubated for 1 hr. Development reagent (protease, 5 μL) is added for 1 hr prior to detection in a fluorescence microplate reader (Varioskan® Flash, ThermoFisher Scientific).
as §3

For data set [4], the target named is p38 MAPKα (Homo sapiens (Human), UniProt Q16539). Kind of data set: p38 MAPKα enzyme inhibition (FRET, Z-LYTE). The format is biochemical. On the procedure:
as §1
The inhibitory activities of test compounds against the p38 MAPKα isoform (MAPK14: Invitrogen), are evaluated indirectly by determining the level of activation/phosphorylation of the down-stream molecule, MAPKAP-K2. The p38 MAPKα protein (80 ng/mL, 2.5 μL) is mixed with the test compound (2.5 μL of either 4 μg/mL, 0.4 μg/mL, 0.04 μg/mL or 0.004 μg/mL) for 2 hr at RT. […] The mixture is incubated for 1 hr at RT. Development reagent (protease, 5 μL) is added for 1 hr prior to detection in a fluorescence microplate reader (Varioskan® Flash, ThermoFisher Scientific).
as §3

The target in data set [5] is Syk (Homo sapiens (Human), UniProt P43405). Kind of data set: Syk enzyme inhibition (FRET, Z-LYTE). The format is biochemical. On the procedure: as §1, §2, §3
In data set [6] the test system is Poly I:C-induced ICAM-1 expression in BEAS2B cells. In words: Poly I:C-induced ICAM-1 expression in BEAS2B cells. The format is cell-based. The conditions noted are these: Homo sapiens, BEAS-2B, read-out: Poly IC induced ICAM1 in BEAS2B IC50. The protocol:
Poly I:C is used in these studies as a simple, RNA virus mimic. Poly I:C-Oligofectamine mixture (1 μg/mL Poly I:C, ±2% Oligofectamine, 25 uL) (Invivogen Ltd., San Diego, Calif., and Invitrogen, Carlsbad, Calif., respectively) is transfected into BEAS2B cells (human bronchial epithelial cells, ATCC). Cells are pre-incubated with final concentrations of test compounds for 2 hr and the level of ICAM1 expression on the cell surface is determined by cell-based ELISA. At a time point 18 hr after poly I:C transfection, cells are fixed with 4% formaldehyde in PBS (100 μL) and then endogenous peroxidase is quenched by the addition of washing buffer (100 μL, 0.05% Tween in PBS: PBS-Tween) containing 0.1% sodium azide and 1% hydrogen peroxide. Cells are washed with wash-buffer (3×200 μL). and after blocking the wells with 5% milk in PBS-Tween (100 μL) for 1 hr, the cells are incubated with anti-human ICAM-1 antibody (50 μL) (Cell Signaling Technology, Danvers, Mass.) in 1% BSA PBS overnight at 4° C.
The cells are washed with PBS-Tween (3×200 μL) and incubated with the secondary antibody (100 μL) (HRP-conjugated anti-rabbit IgG, Dako Ltd., Glostrup, Denmark). The cells are then incubated with of substrate (50 μL) for 2-20 min, followed by the addition of stop solution (50 μL, 1N H2SO4). The ICAM-1 signal is detected by reading and reading the absorbance at 450 nm against a reference wavelength of 655 nm using a spectrophotometer. The cells are then washed with PBS-Tween (3×200 μL) and total cell numbers in each well are determined by reading absorbance at 595 nm after Crystal Violet staining (50 μL of a 2% solution in PBS) and elution by 1% SDS solution (100 μL) in distilled water. The measured OD 450-655 readings are corrected for cell number by dividing with the OD595 reading in each well.

Data set [7] deals with LPS-induced IL-8 release in d-U937 cells. In words: LPS-induced IL-8 release in d-U937 cells. The conditions noted are these: Homo sapiens, dU937, read-out: LPS Induced Release of Cytokine in d-937 Cells IL-8 IC50. In kind it is cell-based. The protocol:
U937 cells, a human monocytic cell line, are differentiated into macrophage-type cells by incubation with PMA (100 ng/mL) for 48 to 72 hr. Cells are pre-incubated with final concentrations of test compound for 2 hr and are then stimulated with LPS (0.1 μg/mL) (from E. coli: O111:B4, Sigma) for 4 hr. The supernatant is collected for determination of TNFα and IL-8 concentrations by sandwich ELISA (Duo-set, R&D systems). […] The relative 50% effective concentration (REC50) is determined from the resultant concentration-response curve. The inhibition of IL-8 production is calculated at each concentration of test compound by comparison with vehicle control. […] (b) LPS-Induced TNFα/IL-8 Release in PBMC Cells

Sequence of GSK3α (P49840 whole entry, canonical isoform): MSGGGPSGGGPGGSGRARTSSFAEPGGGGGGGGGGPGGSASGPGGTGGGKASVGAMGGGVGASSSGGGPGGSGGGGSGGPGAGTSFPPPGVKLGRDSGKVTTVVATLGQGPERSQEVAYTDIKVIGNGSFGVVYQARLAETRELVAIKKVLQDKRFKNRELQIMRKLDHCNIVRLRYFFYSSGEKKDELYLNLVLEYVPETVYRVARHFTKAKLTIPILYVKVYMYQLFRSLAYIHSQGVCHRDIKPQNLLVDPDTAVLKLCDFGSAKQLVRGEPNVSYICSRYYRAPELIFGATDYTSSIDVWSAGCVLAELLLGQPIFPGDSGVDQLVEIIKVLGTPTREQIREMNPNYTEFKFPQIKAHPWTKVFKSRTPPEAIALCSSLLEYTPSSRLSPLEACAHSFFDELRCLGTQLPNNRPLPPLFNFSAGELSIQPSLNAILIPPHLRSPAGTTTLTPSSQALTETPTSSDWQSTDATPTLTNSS
Sequence of cSrc (P12931 whole entry, looked up): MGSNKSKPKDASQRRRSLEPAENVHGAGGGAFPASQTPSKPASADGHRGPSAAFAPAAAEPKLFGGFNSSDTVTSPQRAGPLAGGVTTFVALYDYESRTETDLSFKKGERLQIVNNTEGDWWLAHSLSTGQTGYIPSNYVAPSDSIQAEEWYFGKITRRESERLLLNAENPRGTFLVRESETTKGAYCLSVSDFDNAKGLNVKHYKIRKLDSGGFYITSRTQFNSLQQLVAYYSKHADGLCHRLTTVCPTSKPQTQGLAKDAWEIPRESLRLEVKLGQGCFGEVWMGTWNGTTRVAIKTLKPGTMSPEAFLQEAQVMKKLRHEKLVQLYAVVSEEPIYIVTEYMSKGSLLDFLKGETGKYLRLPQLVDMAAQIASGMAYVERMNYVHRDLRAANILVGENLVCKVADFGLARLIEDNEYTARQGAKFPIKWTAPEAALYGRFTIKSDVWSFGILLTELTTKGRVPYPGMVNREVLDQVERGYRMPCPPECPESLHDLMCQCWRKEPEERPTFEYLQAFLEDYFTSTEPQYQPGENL
Sequence of p38 MAPKα (Q16539 whole entry): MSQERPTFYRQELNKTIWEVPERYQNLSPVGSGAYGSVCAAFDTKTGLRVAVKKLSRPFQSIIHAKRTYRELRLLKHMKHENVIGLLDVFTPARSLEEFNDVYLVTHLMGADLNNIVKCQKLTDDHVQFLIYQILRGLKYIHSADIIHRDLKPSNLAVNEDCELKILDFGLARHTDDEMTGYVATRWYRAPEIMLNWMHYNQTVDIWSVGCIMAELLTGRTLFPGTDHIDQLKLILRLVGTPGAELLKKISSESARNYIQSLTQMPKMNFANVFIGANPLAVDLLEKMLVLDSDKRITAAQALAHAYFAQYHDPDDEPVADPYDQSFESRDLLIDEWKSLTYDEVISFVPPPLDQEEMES

For the molecule `CC(C)c1cc(NC(=O)Nc2ccc(Oc3ccnc(Nc4ccc5[nH]ncc5c4)c3)c3ccccc23)n(-c2cccc(OCCN3CCOCC3)c2)n1` [Example 51], in data set [1], the “MTT Assay Cell viability at time point in d-U937 cells 4 h” value is “−ve (−ve and +ve indicate that the value is below and above respectively, the no significant effect threshold, defined as 30% inhibition at 1 μg/mL at the time point indicated.)”. In addition, the “MTT Assay Cell viability at time point in d-U937 cells 24 h” value in data set [1] was “−ve (−ve and +ve indicate that the value is below and above respectively, the no significant effect threshold, defined as 30% inhibition at 1 μg/mL at the time point indicated.)”. For the same molecule, the 50% inhibitory concentration (IC50) is less than 1 nM in data set [2]; 4900 nM in data set [3]; 2 nM in data set [4]; less than 1 nM in data set [5]; 23.8 nM in data set [6].
For the molecule `Cc1cc(Nc2nccc(Oc3ccc(NC(=O)Nc4cc(C(C)(C)C)nn4-c4ccc(OCCN5CCOCC5)nc4)c4ccccc34)n2)cc2cn[nH]c12` [Example 91, 1-(3-(tert-butyl)-1-(6-(2-morpholinoethoxy)pyridin-3-yl)-1H-pyrazol-5-yl)-3-(4-((2-((7-methyl-1H-indazol-5-yl)amino)pyrimidin-4-yl)oxy)naphthalen-1-yl)urea], in data set [1], the “MTT Assay Cell viability at time point in d-U937 cells 4 h” value was “−ve (−ve and +ve indicate that the value is below and above respectively, the no significant effect threshold, defined as 30% inhibition at 1 μg/mL at the time point indicated.)”. Besides, in data set [1], the “MTT Assay Cell viability at time point in d-U937 cells 24 h” value was “−ve (−ve and +ve indicate that the value is below and above respectively, the no significant effect threshold, defined as 30% inhibition at 1 μg/mL at the time point indicated.)”. Besides, the IC50 in data set [7] came to 1.6 nM; in data set [2], 1 nM; in data set [3], 1210 nM; in data set [4] it was 20 nM; in data set [5], 1 nM; in data set [6], 1.9 nM.
With `Cc1cc(Nc2cc(Oc3ccc(NC(=O)Nc4cc(C(C)(C)C)nn4-c4ccc(OCCN5CCOCC5)cc4)c4ccccc34)ccn2)cc2cn[nH]c12` [Example 68], in data set [1], the “MTT Assay Cell viability at time point in d-U937 cells 4 h” value was “−ve (−ve and +ve indicate that the value is below and above respectively, the no significant effect threshold, defined as 30% inhibition at 1 μg/mL at the time point indicated.)”. Also, the “MTT Assay Cell viability at time point in d-U937 cells 24 h” value in data set [1] is “−ve (−ve and +ve indicate that the value is below and above respectively, the no significant effect threshold, defined as 30% inhibition at 1 μg/mL at the time point indicated.)”. The IC50 in data set [2] was 3 nM; in data set [3], 3040 nM; in data set [4] it was 40 nM; in data set [5], less than 1 nM; in data set [6], 7.6 nM.
With `CC(C)(C)c1cc(NC(=O)Nc2ccc(Oc3ccnc(Nc4ccc5[nH]ncc5c4)c3)c3ccccc23)n(-c2cccc(OCCN3CCOCC3)c2)n1` [Example 52], the “MTT Assay Cell viability at time point in d-U937 cells 4 h” value in data set [1] is “−ve (−ve and +ve indicate that the value is below and above respectively, the no significant effect threshold, defined as 30% inhibition at 1 μg/mL at the time point indicated.)”. Further, the “MTT Assay Cell viability at time point in d-U937 cells 24 h” value in data set [1] was “−ve (−ve and +ve indicate that the value is below and above respectively, the no significant effect threshold, defined as 30% inhibition at 1 μg/mL at the time point indicated.)”. In addition, the 50% inhibitory concentration (IC50) in data set [2] stood at 3 nM; in data set [3] it was 4970 nM; in data set [4], 22 nM; in data set [5] it was 18 nM; in data set [6] it was 10.2 nM.
On to `COc1ccc(-n2nc(C3CCOC3)cc2NC(=O)Nc2ccc(Oc3ccnc(Nc4ccc5[nH]ncc5c4)n3)c3ccccc23)cc1` (stereo not shown) [Example 8, 1-(4-((2-((1H-Indazol-5-yl)amino)pyrimidin-4-yl)oxy)naphthalen-1-yl)-3-(1-(4-methoxyphenyl)-3-(tetrahydrofuran-3-yl)-1H-pyrazol-5-yl)urea], for which, in data set [1], the “MTT Assay Cell viability at time point in d-U937 cells 4 h” value is “−ve (−ve and +ve indicate that the value is below and above respectively, the no significant effect threshold, defined as 30% inhibition at 1 μg/mL at the time point indicated.)”. In addition, the “MTT Assay Cell viability at time point in d-U937 cells 24 h” value in data set [1] was “−ve (−ve and +ve indicate that the value is below and above respectively, the no significant effect threshold, defined as 30% inhibition at 1 μg/mL at the time point indicated.)”. The IC50 came out at 3.6 nM in data set [7]; 2 nM in data set [2]; 837 nM in data set [3]; 7 nM in data set [4]; 8 nM in data set [5]; 16.8 nM in data set [6].
Turning to `Cc1cc(Nc2cc(Oc3ccc(NC(=O)Nc4cc(C(C)(C)C)nn4-c4ccc(OCCN(C)C)cc4)c4ccccc34)ccn2)cc2cn[nH]c12` [Example 58], in data set [1], the “MTT Assay Cell viability at time point in d-U937 cells 4 h” value is “−ve (−ve and +ve indicate that the value is below and above respectively, the no significant effect threshold, defined as 30% inhibition at 1 μg/mL at the time point indicated.)”. Further, the “MTT Assay Cell viability at time point in d-U937 cells 24 h” value in data set [1] was “−ve (−ve and +ve indicate that the value is below and above respectively, the no significant effect threshold, defined as 30% inhibition at 1 μg/mL at the time point indicated.)”. Besides, the IC50 is less than 1 nM in data set [2], 1260 nM in data set [3], less than 1 nM in data set [4] and 8.3 nM in data set [6].

One may read the IC50 as the concentration needed to halve the response being measured.
